Biological target: Potassium voltage-gated channel subfamily KQT member 2 (Rattus norvegicus, UniProt O88943)
Assay: KCNQ2 potassium channel inhibitors, dose response, cell-based, automated electrophysiology, set II, rat KCNQ2 (AID 588637)

Sequence of Potassium voltage-gated channel subfamily KQT member 2 (O88943 whole entry): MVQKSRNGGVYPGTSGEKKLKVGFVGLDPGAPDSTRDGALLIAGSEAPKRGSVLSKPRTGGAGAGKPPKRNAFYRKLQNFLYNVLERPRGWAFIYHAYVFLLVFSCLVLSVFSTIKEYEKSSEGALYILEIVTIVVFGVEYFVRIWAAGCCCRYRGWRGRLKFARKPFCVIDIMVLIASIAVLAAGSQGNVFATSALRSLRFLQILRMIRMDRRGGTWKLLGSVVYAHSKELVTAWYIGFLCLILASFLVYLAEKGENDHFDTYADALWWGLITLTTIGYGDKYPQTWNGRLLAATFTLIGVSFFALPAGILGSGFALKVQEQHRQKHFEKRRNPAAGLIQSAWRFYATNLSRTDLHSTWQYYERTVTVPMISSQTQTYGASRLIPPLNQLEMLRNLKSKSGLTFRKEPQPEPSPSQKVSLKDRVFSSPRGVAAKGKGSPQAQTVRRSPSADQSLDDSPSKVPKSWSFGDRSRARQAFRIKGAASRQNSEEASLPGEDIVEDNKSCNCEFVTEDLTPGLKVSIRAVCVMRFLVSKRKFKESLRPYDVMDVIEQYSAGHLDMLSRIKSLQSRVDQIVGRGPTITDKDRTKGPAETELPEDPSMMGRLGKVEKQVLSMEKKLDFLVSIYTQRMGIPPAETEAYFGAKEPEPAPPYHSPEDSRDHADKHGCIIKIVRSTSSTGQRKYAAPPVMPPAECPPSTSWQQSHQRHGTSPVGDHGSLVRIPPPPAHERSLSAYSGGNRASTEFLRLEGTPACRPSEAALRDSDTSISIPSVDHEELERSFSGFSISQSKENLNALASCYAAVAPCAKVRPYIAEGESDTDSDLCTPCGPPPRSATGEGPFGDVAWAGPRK

Compound | IC50
CC(N=Nc1nc(N2CCCCCC2)nc(N2CCCCCC2)n1)c1ccccc1 (configuration not stated) [(1E)-1-phenylethanone (4,6-diazepan-1-yl-1,3,5-triazin-2-yl)hydrazone] | 1.62 µM
COc1ccc(-[n+]2c(-c3ccccc3)cc(-c3ccc(C)cc3)cc2-c2ccccc2)cc1 | 11.1 µM
